Source: US20190380957A1, “Protein Hydrogels For Treatment Of Neovascular Disease” (New Jersey Institute of Technology, priority 2018, published 2019)

Tests used:
[1] = tested on: human umbilical vein endothelial cells (HUVECs); experiment: Tube formation assay; format: cell-based; conditions: positive control, 1.8 mM suramin in media
Method: To assay the anti-angiogenic effect of the self-assembled peptide on endothelial cells, tube formation assays were performed for a range of peptide concentrations. This assay captures the propensity of human ECs or HUVECs to form capillary-like tubules. The process is sensitive to the presence of anti-angiogenic compounds. HUVECs were seeded along with varying concentrations of SL-Kr5 solution on a basement membrane extract matrix to stimulate the formation of capillary tubules. The effects of the peptide on the HUVECs were characterized by measuring the extent of tube formation in terms of total length of tubules formed, number of segments, number of branches, number of junctions, number of nodes, and […] (FIGS. 8A-8F, FIGS. 9A-9D). […]
Tube Formation Assay: HUVECs (Lonza) were cultured in T75 flasks using an Endothelial Cell Growth Medium BulletKit (Lonza). […] The negative control was supplemented with 298 mM sucrose to match the corresponding highest quantity added to the test conditions, and the positive control contained 1.8 mM suramin. The 96-well plate was then incubated at 37° C. for 4 to 6 hours before imaging on a Nikon Instruments Eclipse Ti-S inverted fluorescence microscope. Tube length was quantified using NIH ImageJ software.

[2] = tested on: endothelial cells; conditions: previously shown; cited from earlier work
[3] = biological target: GRP78 (glucose-regulated protein 78) (Homo sapiens, UniProt P11021); conditions: previously shown; cited from earlier work
[4] = cited from earlier work
[5] = tested on: Female Wistar rats; experiment: In vivo subcutaneous implantation, histology; design: species or system rat; conditions: 200 μL SC implant
[6] = tested on: NIH 3T3 fibroblasts; experiment: In vitro cytocompatibility (LIVE/DEAD viability/cytotoxicity kit); format: cell-based; conditions: for cytocompatibility compared to the media+sucrose control: day 3
Method: (§1) Cytocompatibility was determined by fibroblast cultures treated with increasing concentrations of the peptide in culture media.
(§2) In Vitro Cytocompatibility: NIH 3T3 fibroblasts were cultured in media (Dulbecco's Modified Eagle Medium supplemented with 10% fetal bovine serum and 1% 100× penicillin streptomycin) in T75 flasks. After the cells reached confluency, they were seeded in a 96-well plate at 2,500 cells/well. Three target conditions (800 μM, 80 μM, and […]; n=6) and a control (media with sucrose; n=6) were tested. For target conditions, the peptide was supplemented in the media, and for the media control, 298 mM sucrose (formulation carrier) was added. Media was changed daily and cytocompatibility was assessed on day 3 using a LIVE/DEAD® viability/cytotoxicity kit. Images were taken on a Nikon Instruments Eclipse Ti-S inverted fluorescence microscope, and cell viability was quantified using NIH ImageJ, a known image analysis and processing software program.

[7] = as above; format: cell-based; conditions: mouse, NIH 3T3 fibroblasts; 800 μM SL-Kr5 in media, day 3; control 85-90%, p<0.05; read-out: viability of cells
Method: as §1, §2

Sequence of GRP78 (glucose-regulated protein 78) (P11021 19-654, species assumed): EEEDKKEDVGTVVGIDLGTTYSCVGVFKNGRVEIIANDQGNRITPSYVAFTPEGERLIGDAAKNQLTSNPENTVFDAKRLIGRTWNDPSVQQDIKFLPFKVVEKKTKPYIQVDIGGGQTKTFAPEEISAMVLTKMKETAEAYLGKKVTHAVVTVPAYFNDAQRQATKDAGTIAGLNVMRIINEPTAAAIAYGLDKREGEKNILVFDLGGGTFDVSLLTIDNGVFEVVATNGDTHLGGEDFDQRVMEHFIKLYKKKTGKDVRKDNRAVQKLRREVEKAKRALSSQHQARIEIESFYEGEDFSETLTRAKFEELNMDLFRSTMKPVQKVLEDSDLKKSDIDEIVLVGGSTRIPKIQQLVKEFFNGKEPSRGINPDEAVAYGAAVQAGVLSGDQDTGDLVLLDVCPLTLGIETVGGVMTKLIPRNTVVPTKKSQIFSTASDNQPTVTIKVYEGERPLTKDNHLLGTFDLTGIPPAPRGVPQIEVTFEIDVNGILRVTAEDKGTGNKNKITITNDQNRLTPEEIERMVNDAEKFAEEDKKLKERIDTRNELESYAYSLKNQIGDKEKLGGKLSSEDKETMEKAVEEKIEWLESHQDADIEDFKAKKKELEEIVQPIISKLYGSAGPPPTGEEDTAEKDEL

Compound: Cc1ccc(C(=O)Nc2ccc(S(=O)(=O)O)c3cc(S(=O)(=O)O)cc(S(=O)(=O)O)c23)cc1NC(=O)c1cccc(NC(=O)Nc2cccc(C(=O)Nc3cc(C(=O)Nc4ccc(S(=O)(=O)O)c5cc(S(=O)(=O)O)cc(S(=O)(=O)O)c45)ccc3C)c2)c1 [suramin]
- EC tube formation [1]: inhibited

Compound: PRKLYDY (Kr5)
- apoptosis of endothelial cells [2]: induce apoptosis
- attachment to GRP78 [3]: can attach

Compound: K2(SL)6K2
- basal level of angiogenesis ([4]; no VEGF mimic): strong basal level of angiogenesis
- in vivo biodegradation time ([4]; slow biodegradation): 6 weeks

Compound: Ac-KSLSLSLSLSLSLKGPRKLYDY-NH2 [SL-Kr5, K-(SL)6-K-G-PRKLYDY]
- fibrous capsule [5]: no fibrous capsule apparent
- cytocompatibility compared to the media+sucrose control ([6]; 8 μM SL-Kr5 in media): little to no difference
- cytocompatibility compared to the media+sucrose control ([6]; 80 μM SL-Kr5 in media): little to no difference
- non-specific toxicity in stromal cells ([6]; fibroblast cultures, increasing peptide concentrations): did not induce non-specific toxicity
- cellular proliferation versus controls ([6]; over a range of concentrations): comparable cellular proliferation to controls
- viability at 72 h, 800 µM [7]: 55%
